The source of these data is publication PMC5941281, “Protecting group free radical C–H trifluoromethylation of peptides” (Chemical Science, 2018).

For orientation: pEC50 means the EC50 on a negative log10 scale, so that one unit is a factor of ten. As a reminder, the pIC50 is the IC50 on a negative log10 scale, so that one unit is a factor of ten. The low end stands for a high IC50, the high end for a low IC50.

pEC50, pIC50: −log10 of the molar value.

In test [1] the target is human insulin receptor(B). Briefly: Insulin Receptor Phosphorylation Assay (MSD pIR assay). The conditions noted are these: CHO cells stably expressing human insulin receptor(B), serum starved, 40,000 cells/well, 8 min at 37 °C, read-out: EC50 (functional assay). It is filed as cell-based.
In test [2] the target is human insulin receptor(B). Briefly: Insulin Receptor Binding Assay (scintillation proximity assay). To be noted: SPA, 384-well, membranes from CHO cells overexpressing human insulin receptor(B); [125I]-insulin 0.015 nM; room temperature, 1 to 12 hours. On the procedure: Both the binding affinity and functional activity of 18 supported the conclusion that the A19-CF3-tyrosine–insulin maintained its structural integrity as compared with unmodified, native insulin. To further support this observation, SOFAST ^13C methyl HMQC NMR spectroscopic analysis was conducted on both 18 and native unmodified insulin.[18] […] This observation validated the notion that CF3-labeling of aromatic sidechains provides a sensitive ^19F-NMR spectroscopic probe of the local environment in complex peptides while being minimally perturbing to the overall structure of the biomacromolecule.
Insulin Receptor Binding Assays were run in a scintillation proximity assay (SPA) 384- we ll
format using cell membranes prepared from CHO cells overexpressing human insulin
receptor(B) grown in F12 media containing 10% FBS and antibiotics (G418,
Penicillin/[…]). Cell membranes were prepared in 50 mM Tris buffer, pH 7.8, containing
5 m M Mg Cl 2. The assay buffer contained 50 mM Tris buffer, pH 7.5, 150 mM NaCl, 1 mM
CaCl2, 5 mM MgCl 2, 0.1% BSA and protease inhibitors (Complete- Mi n i -Roche). Cell
membranes were added to W GA PVT PEI SPA beads (5 mg/mL f inal concentration) f ollowed by
addition of test molecules at appropriate concentrations. After 5-15 min incubation at room
temperature, [125I]- insulin was added at 0.015 nM f inal concentration f or a f inal total volume of
50 µL. […]
(In general: Scintillation proximity formats need no separation of bound from free tracer.)

Consider “native insulin: recombinant human insulin, 21 amino acid A chain and 30 amino acid B chain linked by three disulfide bonds”, for which, in test [1], the pEC50 was 9.40. Further, the pIC50 in test [2] was 9.10.
